Data set [1] concerns Chk1. Set-up: method as in printed. Conditions: previously shown in preclinical experiments; ref not given; cited from earlier work.
Data set [2] concerns patients with advanced solid tumours. As to the kind of experiment: Cardiac safety: ECG (QTcF), troponin, echocardiogram. Type of data set: in vivo, human. How it is done:
Cardiac assessments included centrally-assessed serial ECGs in Cycle 1 used for evaluation of QTc. In addition, locally-read ECGs for safety assessment were also available for central assessment where clinically indicated. Troponin T or I assessments and echocardiogram were locally assessed.
Safety and response variables were summarized using descriptive statistics and PK parameters were determined using non-compartmental methods. A concentration-effect model was used to evaluate the relationship between plasma SRA737 concentrations and the mean change from baseline in QT interval corrected for heart rate using Fridericia’s formula (QTcF) in time-matched ECG measurements and PK samples collected on Day −7 to Day −4 and during Cycle 1.

Data set [3] relates to advanced solid tumours (CRC, HGSOC, NSCLC, mCRPC, HNSCC). The experiment in a line: Tumour response by RECIST 1.1. Type of data set: in vivo, human. How it is done:
Radiologic tumour assessments were carried out every 8 weeks, and clinical evaluations and serum tumour markers assessed every 4 weeks. Tumours were assessed using the Response Evaluation Criteria in Solid Tumors version 1.1 (RECIST 1.1). Clinical response data were summarized in cohorts defined by tumour type (CRC, HGSOC, NSCLC, mCRPC, HNSCC, or other disease). The Safety Evaluable population included all patients who received at least one dose of SRA737. The Response Evaluable population included patients who had measurable disease at baseline, received at least 75% of planned SRA737 doses in Cycle 1 and had at least one post-baseline disease assessment or discontinued treatment due to disease progression, adverse event, or death.

Data on 1 compound can be found in article PMC10307885, “A Phase 1/2 trial of SRA737 (a Chk1 inhibitor) administered orally in patients with advanced cancer” (British Journal of Cancer, 2023).

SMILES strings stand for the structures. Several values for one entry are separate records, joined by “and”; a condition that tells them apart may be missing. Equal values may be shown once. Entries after “also recorded” stand apart in the source; their conditions may differ.

Take `N#Cc1cnc(Nc2cc(NC[C@H]3CNCCO3)c(C(F)(F)F)cn2)cn1` [SRA737, (R)-5-((4-((morpholin-2-ylmethyl)amino)-5-(trifluoromethyl)pyridin-2-yl)amino)pyr azine-2-carbonitrile]: the “minimally effective concentration to inhibit Chk1” value in data set [1] was 100 nM and 37.9 ng/mL. Moreover, in data set [2] (800 mg QD, 2 h post dose on Cycle 1 Day 22, 90% confidence interval 11.53 to 22.13), the “largest LS mean ΔQTcF” value was 16.8 ms. Besides, in data set [2] (800 mg SRA737), the “cases of acute coronary syndrome (cardiac SAE)” value stood at 1 case and the “cases of asymptomatic myocardial infarction (cardiac SAE)” value amounted to 1 case. In addition, in data set [2] (1000 mg SRA737), the “cases of asymptomatic QT prolongation (cardiac SAE)” value is listed as 1 case and the “cases of cardiomyopathy (cardiac SAE)” value was 1 case. Besides, the “cardiac serious adverse events evaluated to be possibly related to SRA737” value in data set [2] (all doses) is listed as “Four”. Besides, in data set [2] (central ECG monitoring), the “subjects with treatment-emergent QTcF values >500 ms or ΔQTcF of >60 ms” value is recorded as “no individual subjects”. Moreover, the “patients with > 10% absolute drop from baseline resulting in abnormal left ventricular ejection fraction” value in data set [2] (echocardiogram data, 83 evaluable patients, other than cardiomyopathy and myocardial infarction cases) is “no additional patients”. The “drop of left ventricular ejection fraction, one patient” value in data set [2] (echocardiogram performed outside the study) is given as “from 65 to 20–25%”. Further, the “effects on heart rate, PR interval, or QRS duration” value in data set [2] (studied doses) is listed as “no clinically relevant effects”. In addition, the proarrhythmic potential result in data set [2] (therapeutic doses) was “no indication that SRA737 is proarrhythmic”. In addition, the “disease control rate (at least four cycles with at least stable disease as best response)” value (“disease control rate” for short) in data set [3] (HGSOC, 11/26) stood at 42.3%. For the same compound, the “disease control rate” value in data set [3] (HNSCC, 3/4) stood at 75.0%. Further, the “disease control rate” value in data set [3] (NSCLC, 3/8) is on record as 37.5%. In data set [3] (in vivo), the “patients with reduction or no increase in sum of RECIST target tumour diameters and/or stable disease for 4 or more cycles” value is 29 patients and the “reductions in tumour size” value is “up to 29 % reduction”. For the same compound, the “disease control rate” value in data set [3] (mCRPC, 8/13) is listed as 61.5%. For the same compound, the “RECIST responses (complete or partial)” value in data set [3] (monotherapy, expansion cohort patients with predefined genetic mutations) is on record as “no complete or partial RECIST responses; also recorded: no partial or complete RECIST responses”.
